One experiment has as its target T1, ENPP3 (Homo sapiens, UniProt O14638).
T1 sequence (O14638 1-875): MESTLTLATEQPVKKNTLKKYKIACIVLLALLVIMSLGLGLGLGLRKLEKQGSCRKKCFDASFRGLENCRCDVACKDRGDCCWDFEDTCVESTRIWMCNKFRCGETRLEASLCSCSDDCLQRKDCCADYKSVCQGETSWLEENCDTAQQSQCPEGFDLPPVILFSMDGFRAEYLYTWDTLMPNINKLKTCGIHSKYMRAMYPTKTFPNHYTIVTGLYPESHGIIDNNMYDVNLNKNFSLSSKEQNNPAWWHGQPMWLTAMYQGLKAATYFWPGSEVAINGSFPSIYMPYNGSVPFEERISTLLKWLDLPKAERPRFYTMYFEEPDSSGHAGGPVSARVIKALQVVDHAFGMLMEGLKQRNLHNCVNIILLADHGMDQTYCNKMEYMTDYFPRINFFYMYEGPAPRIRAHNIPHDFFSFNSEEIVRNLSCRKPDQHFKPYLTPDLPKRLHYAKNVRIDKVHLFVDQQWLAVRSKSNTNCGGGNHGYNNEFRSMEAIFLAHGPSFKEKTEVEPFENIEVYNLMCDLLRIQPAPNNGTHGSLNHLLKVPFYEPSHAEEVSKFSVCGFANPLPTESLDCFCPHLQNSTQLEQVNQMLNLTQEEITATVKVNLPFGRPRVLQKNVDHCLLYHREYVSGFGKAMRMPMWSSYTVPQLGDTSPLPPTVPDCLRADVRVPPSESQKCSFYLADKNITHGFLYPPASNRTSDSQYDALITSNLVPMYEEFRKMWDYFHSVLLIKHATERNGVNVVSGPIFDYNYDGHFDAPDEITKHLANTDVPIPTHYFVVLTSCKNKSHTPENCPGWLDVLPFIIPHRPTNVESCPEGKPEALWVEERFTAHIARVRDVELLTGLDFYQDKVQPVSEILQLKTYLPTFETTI
As to the kind of experiment: ENPP3 Km ATP assay. The class given is biochemical. Particulars: ATP at Km.

A further experiment addresses T2, human ENPP1 (Homo sapiens, UniProt P22413).
T2 construct: made in house
T2 sequence (P22413 1-925): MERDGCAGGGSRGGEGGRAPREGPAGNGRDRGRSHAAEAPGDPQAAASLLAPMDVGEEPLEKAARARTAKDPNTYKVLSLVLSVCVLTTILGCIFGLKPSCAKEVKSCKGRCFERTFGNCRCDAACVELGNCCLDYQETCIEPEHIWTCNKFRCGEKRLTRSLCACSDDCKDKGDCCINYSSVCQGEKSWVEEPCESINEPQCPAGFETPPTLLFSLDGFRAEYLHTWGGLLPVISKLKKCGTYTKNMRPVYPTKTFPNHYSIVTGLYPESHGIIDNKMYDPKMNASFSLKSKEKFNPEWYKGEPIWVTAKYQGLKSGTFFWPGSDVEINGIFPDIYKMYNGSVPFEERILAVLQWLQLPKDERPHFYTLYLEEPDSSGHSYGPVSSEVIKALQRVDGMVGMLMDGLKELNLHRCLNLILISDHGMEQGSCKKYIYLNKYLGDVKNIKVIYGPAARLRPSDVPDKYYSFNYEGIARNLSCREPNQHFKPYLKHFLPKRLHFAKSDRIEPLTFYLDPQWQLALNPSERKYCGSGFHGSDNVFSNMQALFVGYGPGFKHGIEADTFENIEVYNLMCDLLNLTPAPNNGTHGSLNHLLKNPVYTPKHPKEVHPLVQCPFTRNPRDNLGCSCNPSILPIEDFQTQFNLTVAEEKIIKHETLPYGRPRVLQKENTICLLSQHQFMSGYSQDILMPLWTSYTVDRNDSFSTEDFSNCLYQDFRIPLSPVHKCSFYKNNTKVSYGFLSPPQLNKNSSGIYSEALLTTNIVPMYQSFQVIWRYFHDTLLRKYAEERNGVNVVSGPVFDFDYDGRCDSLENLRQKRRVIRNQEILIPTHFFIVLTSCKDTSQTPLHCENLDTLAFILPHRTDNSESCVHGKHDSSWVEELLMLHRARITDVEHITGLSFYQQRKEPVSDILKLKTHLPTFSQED
Put plainly: ENPP1 assay with ATP substrate (Transcreener AMP2/GMP2 TR-FRET). Particulars: 1 hour at room temperature. The class given is biochemical. In a few lines:
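Reaction ran 1 h at room temperature in pH 7.5 Tris with MgCl2, TCEP, Tween 20 and 1% DMSO. ATP was added as a 300 nM stock and enzyme as an 8.5 μM stock. After EDTA stop, AMP was read by TR-FRET tracer displacement. Percent inhibition used enzyme/no-enzyme controls; IC50 was fitted with a variable slope.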

Molecules are shown by their SMILES.

`Cc1csc2c(N3CCC(NCCCc4ccncc4Cl)CC3)ncnc12` [Example 3.13, N-(3-(3-Chloropyridin-4-yl)propyl)-1-(7-methylthieno[3,2-d]pyrimidin-4-yl)piperidin-4-amine]: the IC50 on ENPP3 was > 20 µM; on human ENPP1, 0.1 to 1 µM.
Regarding `CC(Nc1ncnc2scc(-c3ccccc3)c12)c1ccc(S(N)(=O)=O)cc1` (stereo not shown) [Example 1.65, 4-(1-(5-Phenylthieno[2,3-d]pyrimidin-4-yl)aminoethyl)benzenesulfonamide], the IC50 at ENPP3 and against human ENPP1 was 1 to 20 µM throughout.
Turning to `NS(=O)(=O)c1ccc(CNc2nc(-c3ccccn3)nc3scc(-c4ccccc4)c23)cc1Cl` [Example 1.18, 2-Chloro-4-(((5-phenyl-2-(pyridin-2-yl)thieno[2,3-d]pyrimidin-4-yl)amino)methyl)-benzenesulfonamide], the values for the IC50 on ENPP3 and against human ENPP1 were 0.1 to 1 µM and < 0.1 µM, respectively.
As for `Cc1csc2c(N3CCC(NCc4ccccc4)CC3)ncnc12` [Example 3.0, N-Benzyl-1-(7-methylthieno[3,2-d]pyrimidin-4-yl)piperidin-4-amine], the IC50 is > 20 µM against ENPP3 and 0.1 to 1 µM against human ENPP1.
In the case of `Cc1csc2c(N3CCC(NCCOc4ccc(F)cc4)CC3)ncnc12` [Example 3.23, N-(2-(4-Fluorophenoxy)ethyl)-1-(7-methylthieno[3,2-d]pyrimidin-4-yl)piperidin-4-amine], the IC50 against ENPP3 and on human ENPP1 was > 20 µM throughout.
`Cc1csc2c(N3CCC(NCCCc4cccc(Cl)c4)CC3)ncnc12` [Example 3.19, N-(3-(3-Chlorophenyl)propyl)-1-(7-methylthieno[3,2-d]pyrimidin-4-yl)piperidin-4-amine]: the IC50 against ENPP3 was > 20 µM; at human ENPP1 it was 0.1 to 1 µM.
For the compound `Cn1ncc2c(NCc3ccc(S(N)(=O)=O)cc3)nncc21` [Example 2.56, 4-(((1-Methyl-1H-pyrazolo[3,4-d]pyridazin-4-yl)amino)methyl)benzenesulfonamide], the half-inhibitory concentration (IC50) on ENPP3 and at human ENPP1 was > 20 µM each time.
Turning to `CCCSc1nc(NCc2ccc(S(N)(=O)=O)cc2)c2cnn(C)c2n1` [Example 2.111, 4-((1-Methyl-6-(propylsulfanyl)-1H-pyrazolo[3,4-d]pyrimidin-4-yl)aminomethyl)-benzenesulfonamide], the results for the half-inhibitory concentration (IC50) on ENPP3 and on human ENPP1 were 0.1 to 1 µM and < 0.1 µM, respectively.
For the compound `Cc1csc2c(N3CCC(NCCc4ccc(F)cc4)CC3)ncnc12` [Example 3.44, N-(4-Fluorophenethyl)-1-(7-methylthieno[3,2-d]pyrimidin-4-yl)piperidin-4-amine], the figures for the IC50 at ENPP3 and against human ENPP1 were > 20 µM and 0.1 to 1 µM, respectively.
`Cc1cc(CNc2nc(-c3ccccn3)nc3scc(-c4ccccc4)c23)ccc1S(N)(=O)=O` [Example 1.19, 2-Methyl-4-(((5-phenyl-2-(pyridin-2-yl)thieno[2,3-d]pyrimidin-4-yl)amino)methyl)-benzenesulfonamide]: the IC50 is 0.1 to 1 µM at ENPP3 and < 0.1 µM on human ENPP1.
Consider `COc1ccc(CCCNC2CCN(c3ncnc4c(C)csc34)CC2)cc1` [Example 3.32, N-(3-(4-Methoxyphenyl)propyl)-1-(7-methylthieno[3,2-d]pyrimidin-4-yl)piperidin-4-amine], for which the IC50 at ENPP3 is > 20 µM; against human ENPP1, 0.1 to 1 µM.
For `c1ccc(CNc2nc(-c3ccccn3)nc3scc(-c4ccccc4)c23)cc1` [Example 1.5, N-Benzyl-5-phenyl-2-(pyridin-2-yl)thieno[2,3-d]pyrimidin-4-amine] the same measures were > 20 µM and > 20 µM.
Regarding `CCOc1nc(NCc2ccc(S(N)(=O)=O)cc2)c2c(Br)nn(C)c2n1` [Example 2.97, 4-((3-Bromo-6-ethoxy-1-methyl-1H-pyrazolo[3,4-d]pyrimidin-4-yl)aminomethyl)-benzenesulfonamide], the IC50 on ENPP3 and against human ENPP1 was < 0.1 µM throughout.
Turning to `Cc1cc(CCCNC2CCN(c3ncnc4c(C)csc34)CC2)ccn1` [Example 3.30, N-(3-(2-Methylpyridin-4-yl)propyl)-1-(7-methylthieno[3,2-d]pyrimidin-4-yl)piperidin-4-amine], the IC50 was > 20 µM against ENPP3 and 0.1 to 1 µM against human ENPP1.
`CC(C)CCOc1nc(NCc2ccc(S(N)(=O)=O)cc2)c2cnn(C)c2n1` [Example 2.101, 4-((1-Methyl-6-(3-methylbutoxy)-1H-pyrazolo[3,4-d]pyrimidin-4-yl)aminomethyl)-benzenesulfonamide]: the values for the 50% inhibitory concentration (IC50) against ENPP3 and against human ENPP1 were 0.1 to 1 µM and < 0.1 µM, respectively.
In the case of `Fc1ccc(CCCNC2CCN(c3ncnc4ccsc34)CC2)cc1` [Example 3.47, N-(3-(4-Fluorophenyl)propyl)-1-(thieno[3,2-d]pyrimidin-4-yl)piperidin-4-amine], the IC50 against ENPP3 was > 20 µM; at human ENPP1 it was 1 to 20 µM.
On to `NS(=O)(=O)c1ccc(CNc2nc(-c3ccccn3)nc3scc(-c4ccccc4)c23)cc1F` [Example 1.13, 2-Fluoro-4-(((5-phenyl-2-(pyridin-2-yl)thieno[2,3-d]pyrimidin-4-yl)amino)methyl)benzenesulfonamide], for which the figures for the half-maximal inhibitory concentration (IC50) against ENPP3 and against human ENPP1 were 0.1 to 1 µM and < 0.1 µM, respectively.
Consider `Cc1csc2c(N3CCC(NCCCc4ccc(C#N)cc4)CC3)ncnc12` [Example 3.6, 4-(3-((1-(7-Methylthieno[3,2-d]pyrimidin-4-yl)piperidin-4-yl)amino)propyl)benzonitrile], for which the results for the IC50 at ENPP3 and on human ENPP1 were > 20 µM and 0.1 to 1 µM, respectively.
For the compound `CN(C)CCN(C)c1nc(NCc2ccc(S(N)(=O)=O)cc2)c2c(-c3ccccc3)csc2n1` [Example 1.58, 4-((2-((N-2-(Dimethylamino)ethyl)-N-methylamino)-5-phenylthieno[2,3-d]pyrimidin-4-yl)aminomethyl)benzenesulfonamide], the IC50 against ENPP3 and at human ENPP1 was < 0.1 µM each time.
Turning to `NS(=O)(=O)c1ccc(CNc2nc(-c3ccccn3)nc3scc(-c4cccnc4)c23)cc1` [Example 1.22, 4-(((2-(Pyridin-2-yl)-5-(pyridin-3-yl)thieno[2,3-d]pyrimidin-4-yl)amino)methyl)-benzenesulfonamide], the results for the IC50 at ENPP3 and on human ENPP1 were 1 to 20 µM and < 0.1 µM, respectively.
Turning to `Cc1nc(N2CCC(NCCCc3ccc(F)cc3)CC2)c2cnn(C)c2n1` [Example 3.55, 1-(1,6-Dimethyl-1H-pyrazolo[3,4-d]pyrimidin-4-yl)-N-(3-(4-fluorophenyl)propyl)piperidin-4-amine], the IC50 on ENPP3 and on human ENPP1 was > 20 µM each time.
As for `CCN(c1nc(NCc2ccc(S(N)(=O)=O)cc2)c2c(-c3ccccc3)csc2n1)C(C)(C)CO` [Example 1.53, 4-((2-(N-Ethyl-N-(1-hydroxy-2-methylpropan-2-yl)amino)-5-phenylthieno[2,3-d]pyrimidin-4-yl)aminomethyl)benzenesulfonamide], the IC50 against ENPP3 and at human ENPP1 was 0.1 to 1 µM in each case.
On to `Cn1ncc2c(NCc3ccc(S(N)(=O)=O)nc3)ncnc21` [Example 2.52, 5-(((1-Methyl-1H-pyrazolo[3,4-d]pyrimidin-4-yl)amino)methyl)pyridine-2-sulfonamide], for which the half-maximal inhibitory concentration (IC50) was 1 to 20 µM against ENPP3 and < 0.1 µM at human ENPP1.

The record behind these values is US12643910B2, “Substituted pyrazolo[3,4-b]pyridines as ectonucleotide pyrophosphatase/phosphodiesterase 1 (ENPP1) modulators” (SANFORD BURNHAM PREBYS MEDICAL DISCOVERY INSTITUTE, priority 2019, dated 2026).
